According to article PMC2974002 (Journal of medicinal chemistry, 2010):
Read-outs that look alike come from different tables or passages of the source.

Tests used:
[1] = Stability to BnSH without soluble base; assay type: physicochemical; conditions: for stability to treatment with BnSH: BnSH in THF (72 h, 23 °C) or MeOH (72 h, 23 °C)
[2] = system: L1210 cells; assay: Cell growth inhibition in a cytotoxic assay with L1210 cells; assay type: cell-based, murine; conditions: for decrease in cytotoxic potency relative to 5: ratio to 5
[3] = Thiol cleavage of prodrugs with BnSH; assay type: physicochemical
[4] = Stability in pH 7.0 phosphate buffer; assay type: physicochemical; conditions: 72 h
[5] = system: L1210 murine leukemia cells; assay type: in vivo, DBA/2J mice; conditions: i.p. on days 1, 5 and 9; for antitumor activity (in words): compared with free drug 11
[6] = clean release of 11; cited from earlier work
[7] = system: DNA; conditions: cell free systems; cited from earlier work

Compound | stability to treatment with BnSH [1] | decrease in cytotoxic potency relative to 5 [2] | half-life [3] [h] | cleavage in pH 7.0 phosphate buffer [4] | cleavage by BnSH ([1]; under all conditions examined) | antitumor activity (in words) [5] | IC50 [2] [nM] | potency of natural (1S)-enantiomer relative to unnatural (1R)-enantiomer [2] | dose of maximal effect ([5]; dose range 10–100 μg/kg) [mg/kg] | half-life in human plasma (t1/2) [6] [h] | half-life ([3]; BnSH (100 equiv) and NaHCO3 (100 equiv) in MeOH) [h] | DNA alkylation [7]
CN(Oc1cc2c(c3ccccc13)C(CCl)CN2C(=O)c1cc2cc(NC(=O)c3cc4ccccc4[nH]3)ccc2[nH]1)C(=O)OC(C)(C)C (centres unmarked) [compound 8, tert-Butyl(3-(5-(1H-indole-2-carboxamido)-1H-indole-2-carbonyl)-1-(chloromethyl)-2,3-dihydro-1H-benzo[e]indol-5-yl)oxy(methyl)carbamate] | stable | nine-fold | 48 | no significant cleavage | – | – | – | – | – | – | – | –
CC(C)(C)C(=O)NOc1cc2c(c3ccccc13)C(CCl)CN2C(=O)c1cc2cc(NC(=O)c3cc4ccccc4[nH]3)ccc2[nH]1 (centres unmarked) [compound 6, N-(2-(1-(Chloromethyl)-5-(pivalamidooxy)-2,3-dihydro-1H-benzo[e]indole-3-carbonyl)-1H-indol-5-yl)-1H-indole-2-carboxamide] | – | – | < 0.5 | completely cleaved | rapidly cleaved | – | – | – | – | – | – | –
NC(=O)NOc1cc2c(c3ccccc13)C(CCl)CN2C(=O)c1cc2cc(NC(=O)c3cc4ccccc4[nH]3)ccc2[nH]1 (centres unmarked) [compound 3, N-(2-(1-(Chloromethyl)-5-(ureidooxy)-2,3-dihydro-1H-benzo[e]indole-3-carbonyl)-1H-indol-5-yl)-1H-indole-2-carboxamide] | stable | ten times | 35 | no significant cleavage | – | active, albeit only at higher doses | – | – | – | – | – | –
seco-CBI-indole2 [compound 11, reference compound] | – | – | – | – | – | – | 0.03 | ca. 30 fold | 0.06 | – | – | –
COC(=O)NOc1cc2c(c3ccccc13)C(CCl)CN2C(=O)c1cc2cc(NC(=O)c3cc4ccccc4[nH]3)ccc2[nH]1 (centres unmarked) [compound 4, Methyl(3-(5-(1H-indole-2-carboxamido)-1H-indole-2-carbonyl)-1-(chloromethyl)-2,3-dihydro-1H-benzo[e]indol-5-yl)oxycarbamate] | stable | five times | 10 | no significant cleavage | – | active, albeit only at higher doses | – | – | – | – | – | –
CC(C)(C)OC(=O)NOc1cc2c(c3ccccc13)C(CCl)CN2C(=O)c1cc2cc(NC(=O)c3cc4ccccc4[nH]3)ccc2[nH]1 (centres unmarked) [compound 5, tert-Butyl(3-(5-(1H-indole-2-carboxamido)-1H-indole-2-carbonyl)-1-(chloromethyl)-2,3-dihydro-1H-benzo[e]indol-5-yl)oxycarbamate] | stable | – | – | no significant cleavage | – | matched or exceeded the efficacy of the free drug 11 at each dose | – | – | – | 3 to 6 | 6 | incapable of alkylating DNA
